According to article PMC5551460 (Cell chemical biology, 2017):
pIC50: −log10 of the molar value.

Assays:
[1] = biological target: T1, FER (Homo sapiens, UniProt P16591); test: ATP acyl phosphate probe competition, SILAC LC-MS; assay type: cell-based
[2] = biological target: T1, FER; test: free ATP competition with ATP acyl phosphate probe, SILAC LC-MS; assay type: cell-based
[3] = biological target: DGKζ (Homo sapiens, UniProt Q13574); test: free ATP; assay type: cell-based
[4] = biological target: T2, DGKκ (Homo sapiens, UniProt Q5KSL6); test: free ATP; assay type: cell-based
T2 sequence (Q5KSL6 1-1271): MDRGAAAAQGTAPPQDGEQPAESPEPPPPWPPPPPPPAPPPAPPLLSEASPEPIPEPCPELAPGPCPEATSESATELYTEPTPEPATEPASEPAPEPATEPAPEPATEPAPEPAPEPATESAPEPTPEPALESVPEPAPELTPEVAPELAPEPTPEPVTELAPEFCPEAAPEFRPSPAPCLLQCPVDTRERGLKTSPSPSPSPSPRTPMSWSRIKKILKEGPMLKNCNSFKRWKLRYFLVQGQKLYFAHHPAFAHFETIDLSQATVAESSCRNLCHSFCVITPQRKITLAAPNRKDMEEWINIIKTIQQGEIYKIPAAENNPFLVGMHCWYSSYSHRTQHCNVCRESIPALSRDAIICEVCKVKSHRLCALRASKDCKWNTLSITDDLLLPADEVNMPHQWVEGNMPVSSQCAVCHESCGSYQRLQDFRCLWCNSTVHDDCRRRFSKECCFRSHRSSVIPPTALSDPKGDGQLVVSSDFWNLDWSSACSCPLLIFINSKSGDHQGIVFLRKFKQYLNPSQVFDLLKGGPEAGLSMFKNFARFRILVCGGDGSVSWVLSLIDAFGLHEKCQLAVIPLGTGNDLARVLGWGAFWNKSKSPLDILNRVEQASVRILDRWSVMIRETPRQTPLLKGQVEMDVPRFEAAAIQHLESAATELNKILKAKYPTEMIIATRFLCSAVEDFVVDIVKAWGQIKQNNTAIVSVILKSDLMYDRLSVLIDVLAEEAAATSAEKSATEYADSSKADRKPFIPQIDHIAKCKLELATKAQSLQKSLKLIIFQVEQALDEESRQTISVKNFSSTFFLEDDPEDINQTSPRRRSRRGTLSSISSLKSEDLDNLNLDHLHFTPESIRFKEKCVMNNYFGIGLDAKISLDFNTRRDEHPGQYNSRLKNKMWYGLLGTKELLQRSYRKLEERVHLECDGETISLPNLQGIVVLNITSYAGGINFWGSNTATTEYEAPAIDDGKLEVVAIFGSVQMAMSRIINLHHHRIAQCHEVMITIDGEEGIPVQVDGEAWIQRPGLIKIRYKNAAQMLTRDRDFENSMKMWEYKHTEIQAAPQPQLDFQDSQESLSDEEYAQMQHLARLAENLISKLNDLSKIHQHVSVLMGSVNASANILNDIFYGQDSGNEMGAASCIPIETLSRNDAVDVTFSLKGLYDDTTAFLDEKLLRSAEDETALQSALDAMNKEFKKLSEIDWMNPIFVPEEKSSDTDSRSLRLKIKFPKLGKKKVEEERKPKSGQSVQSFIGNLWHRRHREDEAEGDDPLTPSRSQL

[5] = biological target: T3, DGKθ (Homo sapiens, UniProt P52824); test: free ATP; assay type: cell-based
T3 sequence (P52824 1-942): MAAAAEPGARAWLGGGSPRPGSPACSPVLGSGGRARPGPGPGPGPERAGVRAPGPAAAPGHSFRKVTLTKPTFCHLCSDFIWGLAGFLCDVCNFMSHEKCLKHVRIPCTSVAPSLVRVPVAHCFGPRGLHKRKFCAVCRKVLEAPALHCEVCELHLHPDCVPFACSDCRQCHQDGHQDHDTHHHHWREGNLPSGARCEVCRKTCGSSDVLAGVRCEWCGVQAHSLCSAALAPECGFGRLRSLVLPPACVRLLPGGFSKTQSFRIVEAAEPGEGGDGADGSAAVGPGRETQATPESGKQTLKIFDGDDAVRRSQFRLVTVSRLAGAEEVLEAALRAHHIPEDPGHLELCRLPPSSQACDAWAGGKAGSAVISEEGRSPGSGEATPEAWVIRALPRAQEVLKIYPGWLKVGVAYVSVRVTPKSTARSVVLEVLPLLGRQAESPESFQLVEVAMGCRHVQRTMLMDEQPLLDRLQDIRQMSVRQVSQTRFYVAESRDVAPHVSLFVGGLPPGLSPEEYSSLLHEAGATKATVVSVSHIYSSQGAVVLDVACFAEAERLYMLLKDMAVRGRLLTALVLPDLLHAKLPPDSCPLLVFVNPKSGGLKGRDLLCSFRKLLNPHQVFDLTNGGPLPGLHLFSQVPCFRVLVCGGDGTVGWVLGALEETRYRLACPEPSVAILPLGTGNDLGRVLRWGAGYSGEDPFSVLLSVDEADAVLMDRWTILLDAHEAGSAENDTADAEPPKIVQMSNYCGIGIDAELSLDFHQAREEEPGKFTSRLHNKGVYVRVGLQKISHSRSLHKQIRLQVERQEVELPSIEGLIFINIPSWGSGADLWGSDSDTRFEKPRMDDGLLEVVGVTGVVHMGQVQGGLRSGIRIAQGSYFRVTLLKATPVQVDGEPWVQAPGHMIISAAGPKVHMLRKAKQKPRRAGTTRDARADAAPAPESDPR

[6] = biological target: DGKα (Rattus norvegicus, UniProt P51556); test: ADP-Glo DAG phosphorylation assay in lysate; assay type: biochemical
DGKα, sequence (P51556 whole entry): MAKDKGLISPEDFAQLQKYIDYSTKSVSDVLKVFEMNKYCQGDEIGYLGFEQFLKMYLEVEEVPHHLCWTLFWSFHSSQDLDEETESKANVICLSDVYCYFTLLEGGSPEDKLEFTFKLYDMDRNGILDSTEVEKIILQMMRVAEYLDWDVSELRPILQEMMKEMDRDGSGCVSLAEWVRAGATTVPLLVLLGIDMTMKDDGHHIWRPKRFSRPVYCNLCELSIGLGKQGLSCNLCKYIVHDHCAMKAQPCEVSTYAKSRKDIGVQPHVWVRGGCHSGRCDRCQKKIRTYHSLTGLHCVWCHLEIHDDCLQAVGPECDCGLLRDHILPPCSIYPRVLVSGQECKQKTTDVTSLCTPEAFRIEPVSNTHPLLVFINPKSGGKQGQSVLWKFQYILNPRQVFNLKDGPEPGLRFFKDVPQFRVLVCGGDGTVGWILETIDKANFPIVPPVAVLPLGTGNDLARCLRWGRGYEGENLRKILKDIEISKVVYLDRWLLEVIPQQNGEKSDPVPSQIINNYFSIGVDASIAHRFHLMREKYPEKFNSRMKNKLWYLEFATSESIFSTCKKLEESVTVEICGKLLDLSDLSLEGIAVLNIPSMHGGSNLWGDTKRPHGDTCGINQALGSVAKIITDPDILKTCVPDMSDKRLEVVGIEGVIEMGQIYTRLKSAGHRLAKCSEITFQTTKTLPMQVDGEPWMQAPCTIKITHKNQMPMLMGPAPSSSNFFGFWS

T1 sequence (P16591 whole entry): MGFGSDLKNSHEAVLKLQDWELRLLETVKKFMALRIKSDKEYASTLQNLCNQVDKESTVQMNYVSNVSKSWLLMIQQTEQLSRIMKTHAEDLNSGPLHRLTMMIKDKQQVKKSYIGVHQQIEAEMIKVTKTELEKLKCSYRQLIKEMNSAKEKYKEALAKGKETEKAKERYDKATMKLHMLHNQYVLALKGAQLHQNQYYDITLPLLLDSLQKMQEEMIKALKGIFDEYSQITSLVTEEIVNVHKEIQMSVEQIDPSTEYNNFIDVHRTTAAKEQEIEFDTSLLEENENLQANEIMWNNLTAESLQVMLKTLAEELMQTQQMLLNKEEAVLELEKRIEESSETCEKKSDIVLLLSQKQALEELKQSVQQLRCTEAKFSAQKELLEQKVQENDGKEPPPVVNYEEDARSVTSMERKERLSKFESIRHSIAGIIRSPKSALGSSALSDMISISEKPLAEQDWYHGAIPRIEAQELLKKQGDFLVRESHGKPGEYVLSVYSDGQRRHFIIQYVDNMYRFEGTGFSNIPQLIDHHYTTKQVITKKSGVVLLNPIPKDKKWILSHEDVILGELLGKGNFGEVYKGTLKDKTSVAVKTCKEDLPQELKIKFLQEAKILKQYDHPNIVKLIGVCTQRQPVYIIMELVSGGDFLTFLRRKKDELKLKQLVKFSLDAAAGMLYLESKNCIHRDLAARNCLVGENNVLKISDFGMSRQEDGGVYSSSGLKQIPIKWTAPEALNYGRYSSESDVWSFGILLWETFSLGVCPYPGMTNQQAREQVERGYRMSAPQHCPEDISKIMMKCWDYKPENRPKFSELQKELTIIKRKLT
DGKζ, sequence (Q13574 whole entry): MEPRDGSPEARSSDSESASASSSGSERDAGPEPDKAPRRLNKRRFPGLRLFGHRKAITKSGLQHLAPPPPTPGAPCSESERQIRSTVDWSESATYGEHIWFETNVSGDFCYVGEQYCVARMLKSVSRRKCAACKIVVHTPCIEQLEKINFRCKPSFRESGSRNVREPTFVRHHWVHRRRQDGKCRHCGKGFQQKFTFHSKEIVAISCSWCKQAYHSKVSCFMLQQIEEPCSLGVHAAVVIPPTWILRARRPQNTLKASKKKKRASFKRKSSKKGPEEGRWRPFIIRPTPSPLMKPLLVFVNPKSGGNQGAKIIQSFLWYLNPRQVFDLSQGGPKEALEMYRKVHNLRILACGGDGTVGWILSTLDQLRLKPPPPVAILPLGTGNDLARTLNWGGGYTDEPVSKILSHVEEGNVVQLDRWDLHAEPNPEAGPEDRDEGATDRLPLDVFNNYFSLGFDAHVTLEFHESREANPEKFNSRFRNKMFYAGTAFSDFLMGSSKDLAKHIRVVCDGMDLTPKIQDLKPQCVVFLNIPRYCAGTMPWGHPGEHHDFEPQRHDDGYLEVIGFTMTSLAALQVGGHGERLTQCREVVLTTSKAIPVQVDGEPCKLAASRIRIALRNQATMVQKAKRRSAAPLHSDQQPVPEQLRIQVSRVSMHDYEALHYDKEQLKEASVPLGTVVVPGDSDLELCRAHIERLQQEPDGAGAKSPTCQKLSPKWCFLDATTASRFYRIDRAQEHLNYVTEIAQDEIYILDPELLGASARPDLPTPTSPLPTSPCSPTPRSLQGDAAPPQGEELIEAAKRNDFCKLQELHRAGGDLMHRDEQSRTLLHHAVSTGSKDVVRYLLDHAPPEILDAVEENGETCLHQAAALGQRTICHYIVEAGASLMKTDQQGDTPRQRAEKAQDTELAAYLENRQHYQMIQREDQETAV

`Cc1nc2sccn2c(=O)c1CCN1CCC(=C(c2ccc(F)cc2)c2ccc(F)cc2)CC1` [ritanserin] was tested, and the “ATP acyl phosphate probe competition, SILAC LC-MS (100 μM compound, SR = 7.9)” value [1] was 7.9.
In the case of `Nc1ncnc2c1ncn2[C@@H]1O[C@H](COP(=O)(O)OP(=O)(O)OP(=O)(O)O)[C@@H](O)[C@H]1O` [ATP], the “free ATP competition with ATP acyl phosphate probe, SILAC LC-MS” value [2] was 19.3, the “free ATP (1 mM) competition with ATP acyl phosphate probe, SILAC LC-MS” value (“free ATP (1 mM) competition” below) [3] was 16.7 and the “free ATP (1 mM) competition” value [4] was 15.0. For the same compound, the “free ATP (1 mM) competition” value [5] was 14.4.
Compound `Fc1ccc(C(=C2CCNCC2)c2ccc(F)cc2)cc1` [RF001] has a pIC50 [6] of 3.65.
